According to patent publication US20140294729A1, “METHODS FOR IDENTIFICATION AND USE OF AGENTS TARGETING CANCER STEM CELLS” (Whitehead Institute for Biomedical Research, priority 2008, published 2014):
“Also recorded” adds a separate entry of the source.

Experiments:
[1] = tested on: HMLERshEcad cells; experiment: Resistance to cytotoxic agents, transformed HMLERshCntrl vs HMLERshEcad dose response; type: cell-based, human; details: FIG. 2A
Description: FIGS. 2A-2D depict that passage through the EMT leads to resistance to conventional chemotherapy drugs. FIG. 2A depicts dose response curves of transformed HMLERshCntrl (light gray line) and HMLERshEcad (dark gray line) cells treated with Paclitaxel and Doxorubicin. Dotted line denotes the 50% fraction surviving. […] FIG. 2B depicts the response of immortalized cells to chemotherapy drugs. HMLEshCntrl and HMLEshEcad cells were treated with the indicated drugs at three concentrations for 3 days and assayed for viability using the MTS assay. While Doxorubucin, Actinomycin D, Paclitaxel and Campthotecin are chemotherapeutic drugs, Staurosporine is a general kinase inhibitor that potently induce apoptosis. FIGS. 2C and 2D depict paclitaxel treatment leads to selective expansion of a minority cell population that has undergone an EMT. Control HMLE cells and GFP expressing HMLEshEcad cells were mixed at a ratio of 20:1 and seeded onto 6-well plates in triplicate. DMSO or Paclitaxel at 2.5 nm or 10 nm concentration was added onto the mixed cell populations 1 day after seeding followed by a 3 day incubation. The number of GFP-positive cells at the end of treatment were analyzed by flow cytometry. […] Note the increase in GFP positivity from 5% to 14% upon […] Paclitaxel treatment.
Since the HMLERsiEcad cells have a 100-fold increase in the frequency of cells capable of seeding tumors, we examined their response to two commonly used chemotherapy drugs, relative to HMLERsiGFP controls. We treated cultured HMLERsiGFP and HMLERsiEcad cells for a period of 3 days with either doxorubicin or paclitaxel, at various concentrations.
Doxorubicin, paclitaxel, actinomycin D, campthotecin and staurosporine were purchased from Sigma and dissolved in dimethyl sulfoxide (dmso). 5000 cells in 100 ul of medium were plated per well in 96-well plates. 24 hrs after seeding, compounds at the indicated concentration were added to wells (5 wells per each concentration). Dmso treatment was used as negative control. Cell viability was measured after 72 hrs using the CellTiter96 AQueous Assay (Promega) according to manufacturer's instructions. Dose response curves were generated with GraphPad Prism software (GraphPad Software, Inc.).

[2] = tested on: breast CSC and progenitor genes; experiment: Gene set enrichment analysis of stem-like cell gene sets after treatment; type: cell-based; details: in comparison with paclitaxel treatment, FIG. 16
Description: (§1) Gene set enrichment analysis was used to determine whether three previously reported sets of genes associated with stem-like cells were repressed in response to salinomycin in comparison with paclitaxel treatment. Graphed are the Kolmogorov-Smimov enrichment scores versus Gene ranks based on differential expression. P-values reflecting statistical significance for each analysis are shown.
as §1, with “Kolmogorov-Smirnov” for “Kolmogorov-Smimov”, “shown. The three previously reported gene signatures are: CD44+CD24− IGS (Liu et al., 2007), CD44+CD24− (Shipitsin et al., 2007) and Mammosphere (Dontu et al., 2003). (FIG. 16.)” for “shown.”

[3] = tested on: HMLE-Twist cells; experiment: Co-culture of GFP-expressing HMLE cells and unlabelled HMLE-Twist cells, FACS for GFP positivity; type: cell-based, human; details: FIG. 4C
Description: (§2) FIG. 4A depicts dose response curves of HMLEshCntrl (A, light gray curve) and HMLEshEcad (A, dark gray curve) cells treated with the 8 compounds identified during the initial screen. 1000 cells of each line were seeded onto 384 well plates and treated with 8 different concentrations of compounds within a 2.5 log range. The cell viability after 3 day treatment was measured by Cell-Titer-Glo. […] FIG. 4B depicts dose response curves of HMLEshCntrl (curve with square data points) and HMLE-Twist (curve with triangular data points) cells treated with the same compounds as in (A). Note that selectivity of Salinomycin, Abamectin, Etoposide and Nigericin (Top, Left-to-Right) is retained even though a different method of EMT induction is used. […] 1 Day after seeding DMSO, Salinomycin (1.25 or 5 μM) or Abamectin (0.25 or 1.25 μM) was added at the indicated concentration. As the GFP vector contains a Blasticidin resistance gene, we used Blasticidin treatment as a positive control for the expansion of GFP-expressing control HMLE cells. After 3 day incubation the mix population of cells were analyzed by flow cytometry and the percentage of GFP-positive cells were determined. […] FIG. 4D depicts dose response curves of transformed HMLERshCntrl (light gray line) and HMLERshEcad (dark gray lines) cells treated with Salinomycin and Abamectin. Dotted line denotes the 50% fraction surviving.
To examine the effects of salinomycin and abamectin treatment on heterogeneous populations of epithelial cells that have and epithelial cells that have not undergone EMT, we co-mixed GFP-labeled HMLE cells with unlabeled HMLE-Twist cells, treating the resulting co-cultures with compounds. As a positive control for this experiment we treated co-cultures with blasticidin, which selects for the differentiated HMLE-GFP cells, which harbor a blasticidin-resistance gene.
For the mix experiments, unlabelled and GFP-labeled cells were mixed at the indicated ratios and seeded onto 6-well plates. Triplicate wells were then treated with dmso or the compounds (paclitaxel, salinomycin, abamectin and blasticidin) for 48 hrs. The cells were washed with PBS, trypsinized and analyzed by FACS for GFP positivity.

[4] = tested on: HMLE-Twist cells; experiment: Dose-response viability of HMLEshCntrl vs HMLE-Twist cells; type: cell-based, human; details: EMT induced by Twist, FIG. 4B
Description: as §2
(§3) Individual compounds were purchased from Sigma and dissolved in DMSO with the exception of nigericin which was dissolved in 100% ethanol. Activity of the compounds were quantified by generating dose-response curves for HMLE-shCntrl, HMLE-shEcad and HMLE-Twist under the same cell density and culture conditions described for the initial screen, using the 384-well plate based system.

[5] = tested on: HMLEshEcad cells; experiment: Dose-response viability of HMLEshCntrl vs HMLEshEcad cells (validation of hits, 384-well, Cell-Titer-Glo); type: cell-based, human; details: FIG. 4A; for selective toxicity towards HMLEshEcad cells relative to HMLEshCntrl cells: dose response on retesting
Description: as §2
We pursued 8 of the 32 compounds for further study and evaluated their effects across a range of doses.
For each of these compounds, we evaluated the effect on cell viability across a series of doses for sibling cell lines either induced into or not induced into EMT.
Information about the general automated HTS protocol is available online at broad.harvard.edu/chembio/index.html. The assay was initiated by plating 40 μL of medium containing 1000 cells/well into white 384-well opaque-bottom plates (Nunc, Rochester, N.Y.) using an automated plate filler (Bio-Tek μFiller; Winsooki, Vt.) and allowing the cells to adhere for 24 hours. 100 nL of compound stock solutions in dmso was transferred from stock plates into the 384-well assay plates using an automated pin-based compound transfer robot (CyBio CyBi-Well vario; Woburn, Mass.). For most compounds the final concentration in each well was calculated to be 10 uM.
The screen was performed in duplicate. For negative controls, entire dmso-treated control plates were employed, in addition to dmso-only control wells that were incorporated into each compound assay plate. The cells were assayed for luciferase activity with the addition 20 ul of CellTiter-Glo Luminescent Cell Viability Assay solution (Promega). The luminescent signal from each plate was detected using an automated plate reader (Perkin-Elmer Envision 1; Wellesley, Mass.).
as §3

For `CC(=O)O[C@H]1C(=O)[C@@]2(C)[C@H]([C@H](OC(=O)c3ccccc3)[C@]3(O)C[C@H](OC(=O)[C@H](O)[C@@H](NC(=O)c4ccccc4)c4ccccc4)C(C)=C1C3(C)C)[C@]1(OC(C)=O)CO[C@@H]1C[C@@H]2O` [paclitaxel], the “IC50 for HMLERsiEcad cells relative to IC50 for HMLERsiGFP cells” value ([1]; 3 days, various concentrations) was “significantly higher”, the “resistance of HMLERshEcad cells compared to HMLERshCntrl cells” value [1] was “significantly more resistant” and the “resistance of HMLERshEcad cells compared to HMLERshCntrl cells” value ([1]; listed as Paclitaxel) was “more resistant”.
For `CC[C@@H](C(=O)[C@@H](C)[C@@H](O)[C@H](C)[C@@H]1O[C@@H]([C@@H](CC)C(=O)O)CC[C@@H]1C)[C@H]1O[C@]2(C=C[C@@H](O)[C@]3(CC[C@@](C)([C@H]4CC[C@](O)(CC)[C@H](C)O4)O3)O2)[C@H](C)C[C@@H]1C` [salinomycin], the “expression of clinically relevant breast CSC and progenitor genes” value [2] was “reduces the expression”, the “GFP-positive fraction relative to DMSO-treated controls” value ([3]; GFP-labeled HMLE + unlabeled HMLE-Twist) was “increase” and the “proportion of HMLETwist cells in co-culture with control cells” value ([3]; Salinomycin 1.25 or 5 μM, Abamectin 0.25 or 1.25 μM) was “dose-dependent decrease; also recorded: selection against the GFP-negative HMLE-twist cells”. The “selectivity for HMLE-Twist cells vs HMLEshCntrl; dose-response curves compared with HMLEshEcad” value [4] was “is retained”, the “IC50 fold lower for HMLEshEcad cells vs HMLEshCntrl cells” value ([5]; 3 day treatment, 8 concentrations) was about 10 fold and the “selective toxicity towards HMLEshEcad cells relative to HMLEshCntrl cells” value [5] was “moderate to strong selectivity; also recorded: strong specificity”. The “selective toxicity towards HMLEshEcad cells relative to HMLEshCntrl cells” value ([5]; listed as Salinomycin) was “selective toxicity”.
